Source: patent publication US9949983B2, “Fused benzazepines for treatment of stuttering” (PSYADON PHARMACEUTICALS, INC., priority 2013, dated 2018)
Where two headings read alike, the source gives them in different places.

Tests used:
[1] = cited from earlier work
[2] = system: stuttering; conditions: cited from earlier work
[3] = system: hD1/hD5 receptors; assay: Binding to cloned human receptors
Procedure: (§1) Activation of D1 receptors by dopamine and similar agonists stimulates the production of cyclic AMP (cAMP) via activation of adenylate cyclase. […] To ensure that there was no species specificity to the receptor binding profile, ecopipam's potency and selectivity were evaluated using cloned human receptors. […] Positron emission tomography (PET) studies using radiolabeled ecopipam have been conducted in healthy volunteers (Karlsson et al., Psychopharmacol., 121:300-308, 1995).

[4] = system: D1/D5 receptors; conditions: rat brain homogenates, at low concentrations; cited from earlier work
[5] = Open-label clinical study of safety, tolerability and activity in adult patients with Tourette's Syndrome; type: in vivo, human; conditions: adult TS patients, 50 mg/day Weeks 1-2, 100 mg/day Weeks 3-8
Procedure: A clinical program was carried out to test the safety, tolerability, and activity of ecopipam in adult patients with Tourette's Syndrome. A multicenter, open-label, nonrandomized study in 25 to 30 subjects was conducted to assess the activity and safety of ecopipam in subjects with TS. […] Assessment was performed at each visit. A follow-up visit was conducted via telephone at Week 10 to record any adverse events. Ecopipam was administered daily before bedtime at 50 mg/day for Week 1 and Week 2 and at 100 mg/day for Weeks 3-8. This treatment regimen is within the scope of the present invention; the compositions and various formulations described herein can be administered as described in this Example. The demographics of the study population were as follows: eighty three percent of the subjects were male (15 out of 18); fifteen were Caucasian, two were African-American, and one was an Asian/Pacific Islander. All subjects reported at least one adverse event (AE). […] These side effects are similar to those seen in other studies with ecopipam and were not unexpected.

[6] = target: dopamine D1 receptors (Homo sapiens, UniProt P21728); conditions: radiolabeled ecopipam, healthy volunteers; cited from earlier work
Sequence of dopamine D1 receptors (P21728 whole entry): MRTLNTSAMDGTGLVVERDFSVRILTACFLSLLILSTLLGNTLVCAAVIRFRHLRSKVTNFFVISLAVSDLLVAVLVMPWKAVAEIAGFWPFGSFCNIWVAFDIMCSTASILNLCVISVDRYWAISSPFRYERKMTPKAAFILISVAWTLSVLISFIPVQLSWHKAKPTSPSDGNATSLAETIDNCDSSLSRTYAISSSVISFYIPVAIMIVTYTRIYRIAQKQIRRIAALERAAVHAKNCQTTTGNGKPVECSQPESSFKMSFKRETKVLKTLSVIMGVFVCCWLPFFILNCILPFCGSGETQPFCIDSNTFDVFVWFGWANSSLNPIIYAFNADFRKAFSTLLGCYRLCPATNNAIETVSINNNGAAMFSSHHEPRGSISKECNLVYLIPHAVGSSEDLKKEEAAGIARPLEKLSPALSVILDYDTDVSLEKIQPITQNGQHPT

[7] = target: T1, D1 receptor (Rattus norvegicus, UniProt P18901); conditions: rats, selective D1-agonist discriminative stimulus; cited from earlier work
T1 construct: In vivo studies on dopamine-agonist-induced behaviors; from tissue; host or cells: living rats (in vivo)
T1 sequence (P18901 whole entry): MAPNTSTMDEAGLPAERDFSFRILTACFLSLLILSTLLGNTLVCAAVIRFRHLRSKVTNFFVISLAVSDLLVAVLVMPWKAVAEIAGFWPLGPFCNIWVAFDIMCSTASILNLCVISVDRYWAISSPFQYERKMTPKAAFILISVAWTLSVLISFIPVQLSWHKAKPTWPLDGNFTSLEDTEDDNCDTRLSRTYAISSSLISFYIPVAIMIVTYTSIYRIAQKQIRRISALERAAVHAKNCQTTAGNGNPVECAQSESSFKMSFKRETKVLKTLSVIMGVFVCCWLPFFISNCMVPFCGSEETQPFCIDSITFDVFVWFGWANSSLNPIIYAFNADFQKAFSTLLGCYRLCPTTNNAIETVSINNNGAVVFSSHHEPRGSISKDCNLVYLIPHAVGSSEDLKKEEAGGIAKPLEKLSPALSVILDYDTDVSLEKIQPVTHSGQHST

[8] = target: D1 receptors (Homo sapiens, UniProt P21728); assay: In vitro cAMP second messenger studies (adenylate cyclase); type: biochemical
Sequence of D1 receptors (P21728 whole entry): as the sequence (P21728 whole entry) above
Procedure: as §1

[9] = known D2 antagonists, literature reports

In the case of `CN1CCc2cc(Cl)c(O)cc2[C@H]2c3ccccc3CC[C@@H]21` [Q=CH2, n=1, 7b(R): 7a(S)(−), X=Cl, Y=OH, 6,7,7a,8,9,13b-hexahydro-3-chloro-2-hydroxy-7-methyl-5H-benzo[d]naphtho[2,1-b]azepine], the “CAR (MED)” value ([1]; po) is given as 30 (po).

In the case of `CN1CCc2cc(Cl)c(O)cc2[C@@H]2c3ccccc3CC[C@H]21` [Q=CH2, n=1, 7b(S):7a(R)(+), X=Cl, Y=OH, 6,7,7a,8,9,13b-hexahydro-3-chloro-2-hydroxy-7-methyl-5H-benzo[d]naphtho[2,1-b]azepine], the “CAR (MED)” value ([1]; po) is given as >30 (po).

For `COc1cc2c(cc1O)C1c3ccccc3CCC1N(C)CC2` (stereo not drawn) [Q=CH2, n=1, trans, X=CH3O, Y=OH, 6,7,7a,8,9,13b-hexahydro-2-hydroxy-3-methoxy-7-methyl-5H-benzo[d]naphtho[2,1-b]azepine], the “CAR (MED)” value ([1]; po) is given as 30 and the “CAR (MED)” value ([1]; sc) is given as 0.3-1.

For `CN1CCc2cc(Cl)c(N)cc2C2c3ccccc3CCC21` (stereo not drawn) [Q=CH2, n=1, trans, X=Cl, Y=NH2, 6,7,7a,8,9,13b-hexahydro-2-amino-3-chloro-7-methyl-5H-benzo[d]naphtho[2,1-b]azepine], the “CAR (MED)” value ([1]; po) is given as 3 (po).

In the case of `CN1CCc2cc(Cl)c(O)cc2C2c3ccccc3CCC21` (stereo not drawn) [Q=CH2, n=1, trans, X=Cl, Y=OH, 6,7,7a,8,9,13b-hexahydro-3-chloro-2-hydroxy-7-methyl-5H-benzo[d]naphtho[2,1-b]azepine], the “CAR (MED)” value ([1]; po) is given as 30 and the “CAR (MED)” value ([1]; sc) is given as 0.3.

For `COc1cc2c(cc1O)C1c3ccccc3CCCC1N(C)CC2` (stereo not drawn) [Q=CH2, n=2, trans, X=CH3O, Y=OH, 2-hydroxy-3-methoxy-7-methyl-5,6,7,7a,8,9,10,14b-octahydro-benzo[d]benzo[3,4]cyclo-hepta[1,2-b]azepine], the “CAR (MED)” value ([1]; sc) is listed as 10 (sc).

For `COc1cc2c(cc1O)CCN(C)C1CCCc3ccccc3C21` (stereo not drawn) [Q=CH2, n=2, trans, X=HO, Y=CH3O, 3-hydroxy-2-methoxy-7-methyl-5,6,7,7a,8,9,10,14b-octahydro-benzo[d]benzo[3,4]cyclo-hepta[1,2-b]azepine], the “CAR (MED)” value ([1]; sc) is listed as 10 (sc).

In the case of `CN1CC2c3ccccc3Oc3ccc(Cl)cc3C2C1` (stereo not shown) [asenapine], the “reported effect on stuttering” value [2, 9] is given as “induce stuttering”.

In the case of `CN1CCc2cc(Cl)c(O)cc2[C@H]2c3ccccc3CC[C@@H]21` [ecopipam, (−)-trans-6,7,7a,8,9,13b-hexahydro-3-chloro-2-hydroxy-N-methyl-5H-benzo [d]-naphtho-[2,1-b]azepine], the “affinity for hD1/hD5 receptors” value [3] is given as “high affinity”, the “affinity for D1/D5 receptors” value [4] is given as “high affinity” and the “patients reporting AEs rated as severe” value ([5]; 18 subjects) is given as “Four”. For the same compound, the “subjects reporting at least one adverse event” value ([5]; 18 subjects) was “All subjects”, the “AEs rated as severe (kinds)” value [5] was “sedation, insomnia, decreased appetite, hypersensitivity, cold sweat, and feeling jittery” and the “AEs rated mild to moderate reported in more than three subjects” value [5] was “fatigue, insomnia, nausea, sedation, headache, restlessness, anxiety, muscle twitching, dysphoria, and sleeplessness”. For the same compound, the “changes in lab tests” value [5] was “none were of clinical significance”, the “changes in vital signs” value [5] was “no clinically significant changes in vital signs” and the serious adverse events [5] was “no serious adverse events”. For the same compound, the “binding in human brain (PET)” value [6] was “specific binding in the human brain”, the “action on dopamine-agonist-induced behaviors” value [7] was “selective D1 antagonist” and the “action on cAMP second messenger” value [8] was “antagonist”.

In the case of `COC(=O)C(c1ccccc1)C1CCCCN1` (stereo not shown) [methylphenidate], the “reported effect on stuttering” value ([2]; D2-preferring dopamine agonist, literature report) is given as “relieve stuttering”.

In the case of `Cc1cc2c(s1)Nc1ccccc1N=C2N1CCN(C)CC1` [olanzapine], the “reported effect on stuttering” value [2, 9] is given as “induce stuttering”.

In the case of `Cc1nc2n(c(=O)c1CCN1CCC(c3noc4cc(F)ccc34)CC1)CCCC2` [risperidone], the “reported effect on stuttering” value [2, 9] is listed as “induce stuttering”.
